Values quoted from earlier work in patent US20040157925A1, “Stable pharmaceutical composition of pravastatin” (priority 2001, published 2004).

Settings: pH 3 or less as found in the stomach; degrades to lactone and 3-a-hydroxy-isopravastatin

**Q.** For `CC[C@H](C)C(=O)O[C@H]1C[C@H](O)C=C2C=C[C@H](C)[C@H](CC[C@@H](O)C[C@@H](O)CC(=O)O)[C@H]21` [Pravastatin sodium, (+)-(3R, 5R)-3,5-dihydroxy-7-[(1 S,2S,6S, 8S, 8aR)-6-hydroxy-2-methyl-8-[(S)-2-methylbutyryloxy]-1,2,6,7,8,8a-hexahydro-1-naphthyl]heptanoate], which “Stability in a low pH environment” value is on record?
**A.** very unstable
